According to patent EP3970494A1 (priority 2020, dated 2022):

How the values were obtained:
Test in all cases: microbe, parasite or virus in culture
Type in all cases: cell-based
Septoria tritici = details: Zymoseptoria tritici, 168 h
Phytophthora infestans = details: 168 h, read-out: Fungal growth at 31 ppm (%) PHYTIN
Fusarium culmorum = details: 168 h

Question: With `CO/N=C(/C(=O)OC)c1cccc(C)c1CO/N=C(\C)c1cccc(C)n1` [Example 65] as the molecule, how does the activity at 31 ppm (Septoria tritici) read?
Answer: 0%

Question: What about the activity at 31 ppm (Phytophthora infestans) of the same molecule?
Answer: 1%

Question: `CNC(=O)/C(=N/OC)c1cccc(C)c1CO/N=C(\C)c1cccc(C(F)(F)F)n1` [Example 2] was tested. Which activity at 31 ppm (Septoria tritici) did it give?
Answer: 12%

Question: What about the activity at 31 ppm (Phytophthora infestans) of the same molecule?
Answer: 18%

Question: What about the activity at 31 ppm (Fusarium culmorum) of the same molecule?
Answer: 7%

Question: How did the activity at 31 ppm (Septoria tritici) turn out when `CO/N=C(/C(=O)OC)c1cccc(C)c1CO/N=C(\C)c1cnc(Cl)c(Cl)c1` [Example 87] was run?
Answer: 1%

Question: What about the activity at 31 ppm (Phytophthora infestans) of the same molecule?
Answer: 0%

Question: And the activity at 31 ppm (Fusarium culmorum)?
Answer: 17%

Question: What does the source list for `CO/N=C(/C(=O)OC)c1cccc(C)c1CO/N=C(\C)c1cncc(C(F)(F)F)c1` [Example 84, methyl (2E)-2-methoxyimino-2-[3-methyl-2-[[(E)-1-[5-(trifluoromethyl)-3-pyridyl]ethylideneamino]oxymethyl]phenyl]acetate]?
Answer: activity at 31 ppm (Septoria tritici): 1%; activity at 31 ppm (Phytophthora infestans): 0%; activity at 31 ppm (Fusarium culmorum): 12%

Question: How did the activity at 31 ppm (Septoria tritici) turn out when `CO/N=C(/C(=O)OC)c1cccc(C)c1CO/N=C(/c1cc(C(F)(F)F)ccn1)C1CC1` [Example 72, Methyl (2E)-2-[2-[[(E)-[cyclopropyl-[4-(trifluoromethyl)-2-pyridyl]methylene]amino]-oxymethyl]-3-methyl-phenyl]-2-methoxyimino-acetate] was run?
Answer: 4%

Question: What about the activity at 31 ppm (Phytophthora infestans) of the same molecule?
Answer: 6%

Question: What about the activity at 31 ppm (Fusarium culmorum) of the same molecule?
Answer: 14%

Question: How did the activity at 31 ppm (Septoria tritici) turn out when `CO/N=C(/C(=O)OC)c1cccc(C)c1CO/N=C(\C)c1cc(C(F)(F)F)nc(C)n1` [Example 57] was run?
Answer: 14%

Question: What about the activity at 31 ppm (Phytophthora infestans) of the same molecule?
Answer: 2%

Question: And the activity at 31 ppm (Fusarium culmorum)?
Answer: 12%

Question: With `CNC(=O)/C(=N/OC)c1cccc(C)c1CO/N=C(\C)c1cc(C(F)(F)F)cc(Cl)n1` [Example 43] as the molecule, how does the activity at 31 ppm (Septoria tritici) read?
Answer: 13%

Question: And the activity at 31 ppm (Phytophthora infestans)?
Answer: 9%

Question: And the activity at 31 ppm (Fusarium culmorum)?
Answer: 14%

Question: What does the source list for `CNC(=O)/C(=N/OC)c1cccc(C)c1CO/N=C(\C)c1cc(C(F)(F)F)ccn1` [Example 5, (2E)-2-methoxyimino-N-methyl-2-[3-methyl-2-[[(E)-1-[4-(trifluoromethyl)-2-pyridyl]-ethylideneamino]oxymethyl]phenyl]acetamide]?
Answer: activity at 31 ppm (Septoria tritici): 19%; activity at 31 ppm (Phytophthora infestans): 20%; activity at 31 ppm (Fusarium culmorum): 8%

Question: Which results are given for `CO/N=C(/C(=O)OC)c1cccc(C)c1CO/N=C(\C)c1ccnc(C(F)(F)F)c1` [Example 47]?
Answer: activity at 31 ppm (Septoria tritici): 0%; activity at 31 ppm (Phytophthora infestans): 0%; activity at 31 ppm (Fusarium culmorum): 8%

Question: What does the source list for `CO/N=C(/C(=O)OC)c1cccc(C)c1CO/N=C(\C)c1cc(C)ccn1` [Example 25]?
Answer: activity at 31 ppm (Septoria tritici): 0%; activity at 31 ppm (Phytophthora infestans): 0%

Question: What does the source list for `CO/N=C(/C(=O)OC)c1cccc(C)c1CO/N=C(\C)c1cc(C(F)(F)F)ccn1` [Example 4, Methyl (2E)-2-methoxyimino-2-[3-methyl-2-[[(E)-1-[4-(trifluoromethyl)-2-pyridyl]ethylideneamino]oxymethyl]phenyl]acetate]?
Answer: activity at 31 ppm (Septoria tritici): 11%; activity at 31 ppm (Fusarium culmorum): 10%

Question: What does the source list for `CO/N=C(/C(=O)OC)c1cccc(C)c1CO/N=C(\C)c1ncccc1C(F)F` [Example 24]?
Answer: activity at 31 ppm (Septoria tritici): 0%; activity at 31 ppm (Phytophthora infestans): 18%

Question: Which results are given for `CO/N=C(/C(=O)OC)c1cccc(C)c1CO/N=C(\C)c1ncccc1F` [Example 74]?
Answer: activity at 31 ppm (Septoria tritici): 21%; activity at 31 ppm (Phytophthora infestans): 0%

Question: For `CO/N=C(/C(=O)OC)c1cccc(C)c1CO/N=C(\C)c1cccc(OC)n1` [Example 6], which activity at 31 ppm (Septoria tritici) is on record?
Answer: 7%

Question: What does the source list for `CO/N=C(/C(=O)OC)c1cccc(C)c1CO/N=C(\C)c1cccnc1` [Example 131]?
Answer: activity at 31 ppm (Septoria tritici): 17%; activity at 31 ppm (Phytophthora infestans): 0%

Question: Which activity at 31 ppm (Septoria tritici) does the source give for `CO/N=C(\C)c1cccc(/C(C)=N/OCc2c(C)cccc2/C(=N\OC)C(=O)OC)n1` [Example 31] here?
Answer: 13%

Question: How did the activity at 31 ppm (Septoria tritici) turn out when `CO/N=C(/C(=O)OC)c1cccc(C)c1CO/N=C(\C)c1cccc(C(F)F)n1` [Example 9] was run?
Answer: 4%

Question: What about the activity at 31 ppm (Phytophthora infestans) of the same molecule?
Answer: 5%

Question: `CO/N=C(/C(=O)OC)c1cccc(C)c1CO/N=C(\C)c1cccc(F)n1` [Example 106] was tested. Which activity at 31 ppm (Septoria tritici) did it give?
Answer: 13%

Question: What about the activity at 31 ppm (Phytophthora infestans) of the same molecule?
Answer: 0%

Question: Which activity at 31 ppm (Septoria tritici) does the source give for `CO/N=C(/C(=O)OC)c1cccc(C)c1CO/N=C(\C)c1cc(C#N)cc(Cl)n1` [Example 64] here?
Answer: 17%

Question: And the activity at 31 ppm (Phytophthora infestans)?
Answer: 21%
